Molecules are shown by their SMILES.

This test relates to salty taste. The test is described as follows: Sensory evaluation of salty taste-enhancing activity (quantitative sensory evaluation test). The format is in vivo, panelists. Here is the method: The strength of the salty taste enhancing activity of the compound of Example 35 was examined by a quantitative sensory evaluation test.
The quantitative sensory evaluation test was performed as follows. The strength of the salty taste enhancing activity when the compound of Example 35 as a sample was mixed at 0.00005 to 0.0040 g/dl with distilled water containing sodium chloride (0.5 g/dl) was measured. Distilled water containing sodium chloride at 0.55 g/dl, 0.60 g/dl, 0.65 g/dl was used as a comparison target. Using a linear measurement method, the corresponding marks were put down as positions in the straight lines showing the sodium chloride concentrations of 1.0 time (0.50 g/dl), 1.1 times (0.55 g/dl), 1.2 times (0.60 g/dl), 1.3 times (0.65 g/dl). For sensory marks, the positions put down by the panelists were measured, averaged and shown as the salty taste enhancement ratio (times) wherein n=5. […] The “initial taste” is the evaluation of the strength of the salty taste for 2 seconds after placing in the mouth, and the “middle and after taste” is a combination of middle taste and after taste, which is the evaluation of the strength of the salty taste after 2 seconds from placing in the mouth.

[1] abbreviates: sensory evaluation FIG. 2 compared with FIG. 3.

On to `O=C(NCCc1c[nH]c2ccc(O)cc12)c1c(O)cccc1O` [Example 35, 2,6-dihydroxy-N-(2-(5-hydroxy-1H-indol-3-yl)ethyl)benzamide], for which the “salty taste enhancing activity” value (0.00005 to 0.0040 g/dl in distilled water containing sodium chloride 0.5 g/dl, n=5, FIG. 2) was “has a salty taste enhancing activity”. Under setting [1], the “concentration region in which salty taste enhancing effect and ENaC activation current began to show” value was at most 0.0001 g/dL; the “concentration region in which salty taste enhancing effect and ENaC activation current reach plateau” value is given as “exceeding 0.0010 g/dl”.

The values above are taken from patent US20130196050A1, “SALTY TASTE ENHANCER” (AJINOMOTO CO., INC., priority 2010, published 2013).
